Reference: US4704403A, “3-(2,2,2-trisubstituted hydrazinium) propionates” (priority 1983, dated 1987)

How the values were obtained:
[1] = tested on: spontaneously hypertensive rats of the Akamoto-Aoki line; test: Hypotensive activity on spontaneously hypertensive rats at a single peroral administration; type: in vivo; conditions: for Systolic arterial pressure: ethyl 40 mg/kg (initial 198), benzyl 40 mg/kg (initial 196)
[2] = tested on: arrhythmia caused by introduction of calcium chloride; test: Antiarrhythmic activity on the model of arrhythmia caused by calcium chloride (antagonism towards calcium); type: in vivo, mice; conditions: for Dose of calcium chloride causing arrhythmia: control 85.0; for Dose of calcium chloride causing heart arrest: control 100.0
Experimental: In experiments on white mice with a mass of 18-25 g narcotized with urethane an electrocardiogram was recorded in the second standard lead. A 2% solution of calcium chloride was introduced into the tail vein at a constant rate (0.01 ml for 2 seconds). The dose of calcium chloride causing arrhythmia and the dose causing heart arrest were determined. In experimental groups the test compounds were administered 20-40 minutes prior to the beginning of the experiment intraperitoneally.

white mice = test: Acute toxicity upon intraperitoneal administration to white mice; type: in vivo; conditions: i.p.
Experimental: (§1) The acute toxicity of the compounds according to the present invention was studied on white mice of both sexes with a mass of 20-25 g. A saturated aqueous solution of the compounds or a suspension in Tween-80 was administered to the animals intraperitoneally. The observation over the animals was carried out for 14 days. The results obtained were processed following the Litchfield-Wilkoxon method. As it follows from the data shown in Table 5 hereinbelow, the studied compounds have a very low acute toxicity, thus providing a large spectrum of the therapeutic effect.

[3] = as above; type: in vivo; conditions: mouse, in vivo, ip, 14 days observation, average values with confidential limits at P=0.05
Experimental: as §1

[4] = tested on: hypertensive male rats of the Akamoto-Aoki line; test: Variation of arterial pressure upon intraperitoneal administration to hypertensive rats; type: in vivo
Experimental: The study of hypotensive properties of the compounds of this invention has been carried out of hypertensive male rats of the Akamoto-Aoki line aged 25-30 weeks. The animals were divided into groups (7-10 rats in each) and for 2 weeks before the beginning of the experiment they were subjected to an every-day training for adaptation to the unit for measurements of the arterial pressure. The systolic and diastolic arterial pressure were measured indirectly on the tail artery. The level of the arterial pressure prior to administration of the test compounds was measured by way of a triple determination thereof--2 days, one day and right before the administration of the preparation. The compounds were administered intraperitoneally in the form of a 2.5% aqueous solution or a 2.5% suspension in Twin-80 in the dose of 50 mg/kg. The measurement of the arterial pressure was effected 30 minutes, 1, 2, 3 and 4 hours and in some cases 24 hours after the administration of the preparation. For a number of compounds featuring a high efficiency, also determined was the dose causing reduction of the arterial pressure by 30% as compared with the starting level (ED30). The statistical processing of the data obtained was carried out using the Student certainty criterion.

[5] = tested on: spontaneously hypertensive rats of the Akamoto-Aoki line; test: Systolic arterial pressure of spontaneously hypertensive rats upon a repeated peroral administration; type: in vivo
Experimental: Thus, after a four-days course of administration (once a day, per os) of the compounds according to the present invention an essential reduction of the arterial pressure in the test animals is observed which is not returned to the initial level even an expiration of four days after discontinuation of the preparation administration, whereas the hypotensive effect of nifedipine is manifested for only 8 hours.

[6] = tested on: adrenaline-caused arrhythmia; test: Adrenaline-caused arrhythmia in narcotized guinea pigs; type: in vivo; conditions: for ED50: Cavia porcellus, iv, intravenously, dose giving antiarrhythmic effect in 50% of the experiments
Experimental: A further study of the antiarrhythmic activity of the compounds according to the present invention was connected with the determination of their effect on experimental arrhythmia induced by adrenaline.
Guinea pigs of both sexes with a mass of 400-700 g were narcotized with urethane (1,500 mg/kg intraperitoneally) The standard second-lead electrocardiogram was recorded. Arrhythmia was caused by a rapid injection (intravenously) of adrenaline in the dose of […]. To find out the protective antiarrhythmia effect of the compounds according to the present invention, the number of animals in which the total number of ectopic contractions was reduced by 50% and more as compared to the control experiments was recorded. […] The results obtained in this study of the antiarrhythmic properties of some of the compounds according to the present invention and novocainamide on the adrenaline model of arrhythmia are shown in Table 7.

[7] = 1 hour after single p.o., ethyl 40 mg/kg, benzyl 40 mg/kg
[8] = 3 hours after single p.o., allyl 50 mg/kg (initial 184)
[9] = 3 hours after single p.o., ethyl 40, allyl 50, benzyl 40 mg/kg
[10] = 5 hours after single p.o., allyl 50 mg/kg (initial 184)
[11] = 5 hours after single p.o., ethyl 40, allyl 50, benzyl 40 mg/kg
[12] = 24 hours after single p.o., allyl 50 mg/kg (initial 184)
[13] = 24 hours after single p.o., ethyl 40, allyl 50, benzyl 40 mg/kg
[14] = 30 minutes, 50 mg/kg i.p. (nifedipine 1 mg/kg i.p.)
[15] = 1 hour, 50 mg/kg i.p. (nifedipine 1 mg/kg i.p.)
[16] = 2 hours, 50 mg/kg i.p. (nifedipine 1 mg/kg i.p.)
[17] = 4 hours, 50 mg/kg i.p. (nifedipine 1 mg/kg i.p.)
[18] = after four-days p.o. course, benzyl 40 mg/kg, allyl 50 mg/kg, nifedipine dose not given
[19] = p.o. once a day, benzyl 40 mg/kg, allyl 50 mg/kg, nifedipine dose not given
[20] = p.o., benzyl 40 mg/kg, allyl 50 mg/kg, nifedipine dose not given

Structure (SMILES): C[N+](C)(Cc1ccccc1)NCCC(=O)[O-] [3-(2,2-dimethyl-2-benzylhydrazinium)propionate]
- Systolic arterial pressure ([1]; 1 hour after single p.o.): 155 mm Hg
- Systolic arterial pressure, percent in parentheses (decrease from initial) [1, 7]: 21%
- Systolic arterial pressure [1, 8]: 150 mm Hg
- Systolic arterial pressure, percent in parentheses (decrease from initial) [1, 9]: 23%
- Systolic arterial pressure [1, 10]: 153 mm Hg
- Systolic arterial pressure, percent in parentheses (decrease from initial) [1, 11]: 22%
- Systolic arterial pressure [1, 12]: 168 mm Hg
- Systolic arterial pressure, percent in parentheses (decrease from initial) [1, 13]: 14%
- Dose of calcium chloride causing arrhythmia ([2]; compound dose 5 mg/kg i.p.): 90.9
- Dose of calcium chloride causing heart arrest ([2]; compound dose 5 mg/kg i.p.): 103.0
- Dose of calcium chloride causing arrhythmia ([2]; compound dose 25 mg/kg i.p.): 111.0
- Dose of calcium chloride causing heart arrest ([2]; compound dose 25 mg/kg i.p.): 112.0
- Relative toxicity with respect to quinidine (LD50 / LD50 of quinidine) (white mice): 51.9
- LD50 at 336 h [3]: 8100 mg/kg
- Average variation of the diastolic arterial pressure [4, 14]: -14 % of the initial
- Average variation of the systolic arterial pressure [4, 14]: -14 % of the initial
- Average variation of the diastolic arterial pressure [4, 15]: -14 % of the initial
- Average variation of the systolic arterial pressure [4, 15]: -14 % of the initial
- Average variation of the diastolic arterial pressure [4, 16]: -21 % of the initial
- Average variation of the systolic arterial pressure [4, 16]: -15 % of the initial
- Average variation of the diastolic arterial pressure [4, 17]: -21 % of the initial
- Average variation of the systolic arterial pressure [4, 17]: -14 % of the initial
- Average variation of the diastolic arterial pressure ([4]; 24 hours, 50 mg/kg i.p.): -15 % of the initial
- Average variation of the systolic arterial pressure ([4]; 24 hours, 50 mg/kg i.p.): -9 % of the initial
- Systolic arterial pressure, 5th day [5, 18]: 166 mm Hg
- Systolic arterial pressure, 8th day [5, 18]: 157 mm Hg
- Systolic arterial pressure, 10th day [5, 18]: 177.8 mm Hg
- Systolic arterial pressure, 1st day after administration ([5]; p.o. once a day, benzyl 40 mg/kg (initial 195.8), allyl 50 mg/kg (initial 176.6), nifedipine dose not given (initial 184.0)): 148.6 mm Hg
- Systolic arterial pressure, 2nd day before administration [5, 19]: 167.8 mm Hg
- Systolic arterial pressure, 3rd day after administration [5, 19]: 157.4 mm Hg
- Systolic arterial pressure, 4th day after administration [5, 19]: 155 mm Hg
- Systolic arterial pressure, 4th day before administration [5, 19]: 156 mm Hg
- Systolic arterial pressure, 3rd day before administration ([5]; p.o. once a day, benzyl 40 mg/kg, nifedipine dose not given): 153 mm Hg
- Percent in parentheses (change of systolic pressure from initial), 1st day after administration [5, 20]: 24%
- Percent in parentheses (change of systolic pressure from initial), 2nd day before administration [5, 20]: 14%
- Percent in parentheses (change of systolic pressure from initial), 3rd day after administration [5, 20]: 20%
- Percent in parentheses (change of systolic pressure from initial), 4th day after administration [5, 20]: 21%
- Percent in parentheses (change of systolic pressure from initial), 4th day before administration [5, 20]: 20%
- Percent in parentheses (change of systolic pressure from initial), 5th day [5, 20]: 15%
- Percent in parentheses (change of systolic pressure from initial), 8th day [5, 20]: 20%
- Percent in parentheses (change of systolic pressure from initial), 10th day [5, 20]: 9%
- Percent in parentheses (change of systolic pressure from initial), 3rd day before administration ([5]; p.o., benzyl 40 mg/kg, nifedipine dose not given): 22%

Structure (SMILES): CCN(CC)CCNC(=O)c1ccc(N)cc1 [Novocainamide, reference compound]
- Dose of calcium chloride causing arrhythmia ([2]; compound dose 10 mg/kg i.p.): 116.0
- Dose of calcium chloride causing heart arrest ([2]; compound dose 10 mg/kg i.p.): 120.0
- Dose of calcium chloride causing arrhythmia ([2]; compound dose 30 mg/kg i.p.): 127.0
- Dose of calcium chloride causing heart arrest ([2]; compound dose 30 mg/kg i.p.): 138.0
- Efficiency (animals with ectopic contractions reduced by 50% and more) ([6]; 2.5 mg/kg intravenously): 1/5
- Efficiency (animals with ectopic contractions reduced by 50% and more) ([6]; 5.0 mg/kg intravenously): 1/5
- Efficiency (animals with ectopic contractions reduced by 50% and more) ([6]; 10.0 mg/kg intravenously): 3/5
- Efficiency (animals with ectopic contractions reduced by 50% and more) ([6]; 20.0 mg/kg intravenously): 5/5
- ED50 [6]: 7.6 mg/kg
- Relative toxicity with respect to quinidine (LD50 / LD50 of quinidine) (white mice): 1.85
- LD50 at 336 h [3]: 290 mg/kg

Structure (SMILES): CC[N+](C)(C)NCCC(=O)[O-] [3-(2,2-dimethyl-2-ethylhydrazinium)propionate monohydrate]
- Systolic arterial pressure ([1]; 1 hour after single p.o.): 185 mm Hg
- Systolic arterial pressure, percent in parentheses (decrease from initial) [1, 7]: 7%
- Systolic arterial pressure [1, 8]: 190 mm Hg
- Systolic arterial pressure, percent in parentheses (decrease from initial) [1, 9]: 4%
- Systolic arterial pressure [1, 10]: 193 mm Hg
- Systolic arterial pressure, percent in parentheses (decrease from initial) [1, 11]: 3%
- Systolic arterial pressure [1, 12]: 191 mm Hg
- Systolic arterial pressure, percent in parentheses (decrease from initial) [1, 13]: 4%
- Dose of calcium chloride causing arrhythmia ([2]; compound dose 5 mg/kg i.p.): 83.0
- Dose of calcium chloride causing heart arrest ([2]; compound dose 5 mg/kg i.p.): 95.0
- Dose of calcium chloride causing arrhythmia ([2]; compound dose 25 mg/kg i.p.): 91.0
- Dose of calcium chloride causing heart arrest ([2]; compound dose 25 mg/kg i.p.): 98.0
- Efficiency (animals with ectopic contractions reduced by 50% and more) ([6]; 3.0 mg/kg intravenously): 1/4
- Efficiency (animals with ectopic contractions reduced by 50% and more) ([6]; 10.0 mg/kg intravenously): 2/4
- Efficiency (animals with ectopic contractions reduced by 50% and more) ([6]; 20.0 mg/kg intravenously): 4/5
- ED50 [6]: 8.2 mg/kg
- Relative toxicity with respect to quinidine (LD50 / LD50 of quinidine) (white mice): 14.7
- LD50 at 336 h [3]: 2300 mg/kg
- Average variation of the diastolic arterial pressure [4, 14]: -2 % of the initial
- Average variation of the systolic arterial pressure [4, 14]: -5 % of the initial
- Average variation of the diastolic arterial pressure [4, 15]: -17 % of the initial
- Average variation of the systolic arterial pressure [4, 15]: -11 % of the initial
- Average variation of the diastolic arterial pressure [4, 16]: -22 % of the initial
- Average variation of the systolic arterial pressure [4, 16]: -13 % of the initial
- Average variation of the diastolic arterial pressure [4, 17]: -23 % of the initial
- Average variation of the systolic arterial pressure [4, 17]: -18 % of the initial
- Average variation of the diastolic arterial pressure ([4]; 24 hours, 50 mg/kg i.p.): -25 % of the initial
- Average variation of the systolic arterial pressure ([4]; 24 hours, 50 mg/kg i.p.): -18 % of the initial

Structure (SMILES): C[N+](C)(CCc1ccccc1)NCCC(=O)[O-] [3-(2,2-dimethyl-2-phenylethylhydrazinium)propionate dihydrate]
- Dose of calcium chloride causing arrhythmia ([2]; compound dose 5 mg/kg i.p.): 88.7
- Dose of calcium chloride causing heart arrest ([2]; compound dose 5 mg/kg i.p.): 115.6
- Dose of calcium chloride causing arrhythmia ([2]; compound dose 15 mg/kg i.p.): 110.5
- Dose of calcium chloride causing heart arrest ([2]; compound dose 15 mg/kg i.p.): 142.5
- Efficiency (animals with ectopic contractions reduced by 50% and more) ([6]; 10.0 mg/kg intravenously): 3/5
- Efficiency (animals with ectopic contractions reduced by 50% and more) ([6]; 20.0 mg/kg intravenously): 4/5
- ED50 [6]: 7.8 mg/kg
- Relative toxicity with respect to quinidine (LD50 / LD50 of quinidine) (white mice): 11.8
- LD50 at 336 h [3]: 1850 mg/kg
